“Also recorded” adds a separate entry of the source. Where two headings read alike, the source gives them in different places.
Columns and labels:
VEEV TC-83 [1] = test: microbe, parasite or virus in culture; type: cell-based; details: Venezuelan equine encephalitis virus, Vero 76
VEEV TC-83 [2] = test: microbe, parasite or virus in culture; type: cell-based; details: Venezuelan equine encephalitis virus, Vero 76, read-out: IC50 against TC-83 1º
VEEV TC-83 [3] = test: microbe, parasite or virus in culture; type: cell-based; details: Venezuelan equine encephalitis virus
VEEV V3526 = test: microbe, parasite or virus in culture; type: cell-based; details: Venezuelan equine encephalitis virus
in vitro [4] = details: African green monkey
VEEV TrD [5] = test: microbe, parasite or virus in culture; type: cell-based; details: Venezuelan equine encephalitis virus
EEEV strain FL91 = test: microbe, parasite or virus in culture; type: cell-based, Eastern equine encephalitis virus
WEEV (VR-70) = test: microbe, parasite or virus in culture; type: cell-based; details: Western equine encephalitis virus, Vero, 72 h, read-out: Antiviral Activity (IC50), WEEV
CHIKV = test: microbe, parasite or virus in culture; type: cell-based, Chikungunya virus
Ebola virus (Zaire)-GFP = test: microbe, parasite or virus in culture; type: cell-based
RSV (strain Long) = test: microbe, parasite or virus in culture; type: cell-based, human respiratory syncytial virus
VACV-LREV = test: microbe, parasite or virus in culture; type: cell-based, vaccinia virus (western reserve)
VSV-EGFP = test: microbe, parasite or virus in culture; type: cell-based, vesicular stomatitis virus
VEEV TC-83 [6] = type: cell-based, Venezuelan equine encephalitis virus
VEEV TrD [7] = type: cell-based, Venezuelan equine encephalitis virus
VEEV TC-83 [8] = type: cell-based, Venezuelan equine encephalitis virus; remark: listed apart in the source
VEEV TC-83 RNA = type: cell-based, Venezuelan equine encephalitis virus
VEEV TC-83 proteins = type: cell-based, Venezuelan equine encephalitis virus
VEEV TC-83 [9] = type: cell-based, Venezuelan equine encephalitis virus; remark: listed apart in the source
[10] = mouse, in vivo
[11] = 16 hr.
[12] = microsomes
in vivo = details: mouse, ip
in vitro [13] = details: mouse, plasma
in vitro [14] = details: microsomes
in vitro [15] = details: mouse; for fraction unbound: plasma
in vitro [16] = details: dog, MDCK-MDR1
MDR1 = test: in vitro; details: dog, MDCK-MDR1
in vitro [17] = details: PAMPA
VEEV TC-83 [18] = details: mouse, in vivo; cited from earlier work
[19] = Vero 76, read-out: IC50 against TC-83 2º

`Clc1ccc2nnnc(-c3ccccc3)c2c1` [compound 902491] showed an inhibition at 20 µM (VEEV TC-83 [1]) of 42.1%, an IC50 (VEEV TC-83 [2]) of 9.71 µM and an IC50 (VEEV TC-83 [3]; [19]) of 3.45 µM. The IC50 (VEEV V3526; read-out: IC50 against V3526) was 6.12 µM and the CC50 (in vitro [4]) was > 25 µM.

`O=c1nc(Nc2ccc(OCc3ccccc3)cc2)sc2ncccc12` [compound 1258664] gave an inhibition at 20 µM (VEEV TC-83 [1]) of 63.2%, an IC50 (VEEV TC-83 [2]) of 2.86 µM and an IC50 (VEEV TC-83 [3]; [19]) of 2.38 µM. For the same molecule, the IC50 (VEEV V3526; read-out: IC50 against V3526) was 3.67 µM and the CC50 (in vitro [4]) was > 25 µM.

For `O=C(Oc1ccc2ccccc2c1Br)N1CCCCCC1` [compound 2928803], the inhibition at 20 µM (VEEV TC-83 [1]) was 42.8%, the IC50 (VEEV TC-83 [2]) was 4.26 µM and the IC50 (VEEV TC-83 [3]; [19]) was > 50 µM. For the same molecule, the IC50 (VEEV V3526; read-out: IC50 against V3526) was > 50 µM and the CC50 (in vitro [4]) was > 25 µM.

`CCN1CCN(Cc2nc3ccc([N+](=O)[O-])cc3c(=O)n2-c2ccccc2F)CC1` [CID15997213] showed an inhibition at 20 µM (VEEV TC-83 [1]) of 73%, an IC50 (VEEV TC-83 [2]) of 1.91 µM and an IC50 (VEEV TC-83 [3]; [19]) of 1.3 µM. It also gave an IC50 (VEEV TC-83 [3]; read-out: IC50, VEEV TC-83) of 0.84 µM, an IC50 (VEEV V3526; read-out: Antiviral Activity (IC50), VEEV V3526) of 0.67 µM and an IC50 (VEEV V3526; read-out: IC50, V3526) of 0.32 µM. It also gave an IC50 (VEEV V3526; read-out: IC50 against V3526) of 1.01 µM, an IC50 (VEEV TrD [5]; N2a, read-out: Antiviral Activity (IC50), VEEV TrD) of 0.48 µM and an IC50 (VEEV TrD [5]; Vero 76, read-out: Antiviral Activity (IC50), VEEV TrD) of 0.38 µM. The IC50 (VEEV TrD [5]; read-out: IC50, VEEV TrD) was 0.36 to 0.48 µM, the “Antiviral Activity (IC50), EEEV” value (EEEV strain FL91) was “no activity” and the IC50 (EEEV strain FL91; Eastern equine encephalitis virus, Vero, 40 h, read-out: Antiviral Activity (IC50), EEEV) was > 20 µM. The IC50 (WEEV (VR-70)) was 10 µM, the “Antiviral Activity (IC50), CHIKV” value (CHIKV) was “not inhibited” and the IC50 (CHIKV; Chikungunya virus, 72 h, read-out: Antiviral Activity (IC50), CHIKV) was > 50 µM. For the same molecule, the “Antiviral Activity (IC50), Ebola virus (Zaire)-GFP” value (Ebola virus (Zaire)-GFP) was “No antiviral activity”, the IC50 (Ebola virus (Zaire)-GFP; Zaire ebolavirus, HeLa, 24 h, read-out: Antiviral Activity (IC50), Ebola virus (Zaire)-GFP) was > 10 µM and the “Antiviral Activity (IC50), RSV” value (RSV (strain Long)) was “No antiviral activity”. For the same molecule, the IC50 (RSV (strain Long); human respiratory syncytial virus, HEp-2, 120 h, read-out: Antiviral Activity (IC50), RSV) was > 50 µM, the “Antiviral Activity (IC50), VACV-LREV” value (VACV-LREV) was “No antiviral activity” and the IC50 (VACV-LREV; Vaccinia virus Western Reserve, A549, 18 h, read-out: Antiviral Activity (IC50), VACV-LREV) was > 20 µM. The “Antiviral Activity (IC50), VSV-EGFP” value (VSV-EGFP) was “No antiviral activity”, the IC50 (VSV-EGFP; Vesicular stomatitis virus, A549, 18 h, read-out: Antiviral Activity (IC50), VSV-EGFP) was > 20 µM and the “Progeny virus in titer reduction assay” value (VEEV TC-83 [6]) was “No progeny virus was detected”. The “Progeny virus in titer reduction assay” value (VEEV TrD [7]) was “No progeny virus was detected”, the Plaque formation (VEEV TC-83 [8]) was “no visible plaques” and the “Reduction in viral RNA levels as compared to the control” value (VEEV TC-83 RNA) was > 8,000 fold. The “Viral protein level (western blot)” value (VEEV TC-83 proteins) was “dramatic decrease in viral protein level; also recorded: not able to detect viral proteins”, the “Virus production still occurring, of the maximum” value (VEEV TC-83 [9]) was 90% and the “Acute toxicity, clinical signs” value [10] was “no acute toxicity”. For the same molecule, the “Toxicity (body weight loss, adverse effects)” value [10] was “No apparent toxicity”, the Aqueous solubility [11] was >100 µM and the microsomal stability [12] was “good”. The MTD (in vivo) was ≥ 800 mg/kg, the CC50 (in vitro [4]) was > 25 µM and the solubility (physchem) was > 100 µM. The half-life (in vitro [13]) was > 4 h, the microsomal CLint (in vitro [14]) was 31.4 µL/min/mg and the recovery (in vitro [15]) was 89%. It also gave a fraction unbound (in vitro [15]; Mean plasma fraction bound) of 0.324, a fraction unbound (in vitro [15]; Mean plasma fraction unbound) of 0.324 and a fraction unbound (in vitro [15]; protein binding) of 0.68. For the same molecule, the Papp A→B (in vitro [16]) was 7.2 ×10⁻⁶ cm/s, the Papp B→A (in vitro [16]) was 38.5 ×10⁻⁶ cm/s and the efflux ratio (MDR1) was 5.3. The Papp (in vitro [17]) was 42 ×10⁻⁶ cm/s.

In the case of (−)-carbodine, the Survival (VEEV TC-83 [18]) is listed as 50%.

`CCOC(=O)c1ccc(Nc2nc(=O)c3cccnc3s2)cc1` [compound 1259240] gave an inhibition at 20 µM (VEEV TC-83 [1]) of 49%, an IC50 (VEEV TC-83 [2]) of 6.32 µM and an IC50 (VEEV TC-83 [3]; [19]) of 7.07 µM. The IC50 (VEEV V3526; read-out: IC50 against V3526) was 10.8 µM and the CC50 (in vitro [4]) was > 25 µM.

Molecule `O=C(Cc1cccs1)Nc1nc2c(s1)CCCC2` [compound 847035] has an inhibition at 20 µM (VEEV TC-83 [1]) of 27.8%, an IC50 (VEEV TC-83 [2]) of 6.38 µM and an IC50 (VEEV TC-83 [3]; [19]) of 4.71 µM. For the same molecule, the IC50 (VEEV V3526; read-out: IC50 against V3526) was 7.09 µM and the CC50 (in vitro [4]) was > 25 µM.

From publication PMC4072787 (PLoS Pathogens, 2014)
